Literature values as cited in PMC3346673 (Toxicological and environmental chemistry, 2012).

Tests used:
[1] = temporarily ref Risher & Amier, 2005; cited from earlier work
[2] = administered by sc injection; cited from earlier work

Row | SMILES | reduction of blood mercury levels [1] | predicted LD50 [2] [mg HgCl2 kg^−1]
1 | O=S(=O)(O)CC(S)CS (stereo not drawn) [DMPS, dimercaptopropanesulfonate] | about 20% | –
2 | O=C(O)C(S)C(S)C(=O)O (stereo not drawn) [DMSA, dimercaptosuccinic acid] | about 20% | –
3 | [Cl][Hg][Cl] [HgCl2, mercury chloride] | – | 14
